Reference: patent US20140088052A1, “CHALCONE DERIVATIVES AS NRF2 ACTIVATORS” (THE JOHNS HOPKINS UNIVERSITY, priority 2011, published 2014)

Key:
Beas-2B cells = experiment: Cell viability / cytotoxicity (MTT assay) in Beas-2B cells; assay type: cell-based, human; settings: 24 h, DMSO = 100
Experimental: Concurrent with the gene expression analysis, the cytotoxicity of the chalcone derivatives was determined using the MTT assay.
Mad. Chem. 2007, 15, 2952-2962. […] Four hours before the end of incubation, the medium was removed and 100 μL of MTT (5 mg/mL in serum free medium) was added to each well. The MTT was removed after 4 h, cells were washed with PBS, and 100 μL DMSO was added to each well to dissolve the water-insoluble MTT-formazan crystals. The absorbance was recorded at 570 nm in a plate reader (Molecular Devices, Sunnyvale, Calif.).

Nrf2 [1] = experiment: Nrf2-regulated gene expression with or without N-acetyl-cysteine in Beas-2B cells; assay type: cell-based, human; settings: 10 μM with NAC 10 mM, 24 h
Experimental: Cells were harvested 24 h after the treatment and the Nrf2-driven expression of NQO1, HO-1, and GCLM was quantified. β-actin was used for normalization. Data are representative of three independent experiments. Values shown are mean±SD of triplicate wells (P≦0.05);
The activation of Nrf2 by various electrophiles and compounds that are Michael acceptors is attributed to changes in ROS production and or redox environment and or direct cysteine modification in Keap1. Nguyen, T., et al., The Nrf2-antioxidant response element signaling pathway and its activation by oxidative stress. J. Biol. Chem. 2009, 284, 13291-13295; McMahon, M., et al., Keap1 perceives stress via three sensors for the endogenous signaling molecules nitric oxide, zinc, and alkenals. Proc. Natl. Acad. Sci. U.S.A. 2010, 107, 18838-18843. Whether 2b activates Nrf2 by generating ROS or redox changes also was examined.

[2] = system: mice subjected to total body irradiation (TBI); experiment: Survival of mice after total body irradiation; assay type: in vivo, mice (C57BL/6); settings: 5 more doses every 48 h; for survival: 30 days
Experimental: To determine whether 2-trifluoromethyl-2′-methoxychalone, a potent Nrf2 activator, improves survival after lethal irradiation, irradiated mice were treated with 2-trifluoromethyl-2′-methoxychalone (200 μmol/kg body weight) or vehicle (100% PEG) by gavage. […] (LD70/30; 70% death in 30 days).
To investigate the therapeutic efficacy of compound 2b to mitigate mortality and the hematopoietic syndrome, mice were subjected to total body irradiation (TBI). C57BL/6 (8 wks, males,) were fed chow pellets ad libitum and supplied non-acidic water. Mice were subjected to TBI (0.65 Gy/min) in an AECL Gamma cell 40 irradiator (Atomic Energy, Canada).
Mortality was monitored every day for 30 days.
Mortality was monitored every day for 30 days. […] The percent mortality of mice treated with the vehicle at 1 h or 6 h after radiation was 100% (data not shown).

[3] = system: mice subjected to total body irradiation (TBI); experiment: Hematopoietic recovery after total body irradiation; assay type: in vivo
Experimental: At indicated time periods, a cohort of mice was sacrificed. Peripheral blood was collected by heart puncture at the indicated days and differential blood cell count was analyzed using Hemavet 950FS(P<0.05, n=3 per group). Femur bones were fixed, decalcified sectioned along the sagittal plan and stained with hematoxylin and eosin for analyzing marrow cellularity.

Nrf2 [4] = experiment: Pharmacodynamic markers of Nrf2 activity (NQO1, HO-1, GCLM) in irradiated mice; assay type: in vivo; settings: irradiated (6.9Gy) mice, day 12, compared to vehicle
Experimental: NQO1, HO-1 and GCLM levels were analyzed in bone marrow (FIG. 12A), lung (FIG. 12B) and small intestine (FIG. 12C) harvested at day 12 from irradiated (6.9Gy) mice treated with vehicle or drug.

hematopoietic stem cells = experiment: Bone marrow mononuclear cells and hematopoietic stem cells in irradiated mice; assay type: in vivo; settings: 6.9Gy, single dose 24 h after irradiation, compared to vehicle
[5] = system: chemotherapy-induced neutropenia; experiment: Cyclophosphamide-induced reversible neutropenia in mice; assay type: in vivo; settings: cyclophosphamide i.p. day 0 and day 5, treatment every 48 h, compared to vehicle
Experimental: At indicated time periods, a cohort of mice was sacrificed. Peripheral blood was collected and differential blood cell count was analyzed using a Hemavet 950S.

OVA-induced asthma = OVA-induced asthma mouse model; assay type: in vivo; set-up: dose or concentration left out as unconfirmed; settings: mice, every other day during sensitization and challenge, prophylactic mode
Experimental: Mice were sensitized by intraperitoneal injection (day 0, day 14), and challenged intranasally, with OVA (day 21 to day 24). […] 24 h after the last dose of OVA challenge, airway inflammation (FIG. 16A) and airway hyperresponsiveness (AHR) (FIG. 16B) were assessed.

[6] = system: LPS-induced TNF-α secretion; experiment: LPS-induced TNF-α secretion by mouse peritoneal macrophages; assay type: cell-based, mice; settings: 5 μM or 10 μM for 16-20 h, LPS 100 ng/mL 4 h, compared to vehicle
Experimental: After 4 h, TNF-α secretion in cell-free media by macrophages was analyzed by ELISA.

COc1ccccc1C(=O)/C=C/c1ccccc1C(F)(F)F [Compound 2b, (E)-1-(2-methoxyphenyl)-3-(2-(trifluoromethyl)phenyl)prop-2-en-1-one]
% Cell Viability (Beas-2B cells): 100.9%
expression of GCLM, NQO1 and HO1 in the presence of NAC (Nrf2 [1]): potentially increase the expression of Nr2-regulated antioxidant genes in the presence of NAC
median survival ([2]; 7.3 Gy TBI, treatment started 24 hours after irradiation, 200 μmol/kg by gavage, vehicle approximately 15 days): 26 days
survival ([2]; TBI 6.9 Gy, oral 400 mg/Kg started 24 h after TBI): 90%
survival ([2]; TBI 7.1 Gy, oral 400 mg/Kg started 24 h after TBI): 60%
survival ([2]; TBI 7.3 Gy, oral treatment started 1 h after TBI): approximately 60%
survival ([2]; TBI 7.3 Gy, oral treatment started 6 h after TBI): ~50%
bone marrow cellularity (H&E staining) ([3]; 6.9 Gy TBI, day 7 and day 20, compared to vehicle): greater marrow cellularity
WBC, RBC and platelets on day 22 post-irradiation ([3]; 6.9 Gy TBI, oral treatment from 24 h after): significant increase in WBC, red blood cells (RBC) and platelets
white blood cells, neutrophils and lymphocytes post-irradiation ([3]; 6.9 Gy TBI, oral treatment from 24 h after, compared to vehicle): early increase in white blood cells (WBC), neutrophils and lymphocytes
hematopoietic reconstitution (CBC analysis, WBC) ([3]; 7.3 Gy TBI, treatment 24 hours after, 30 days): significant recovery of WBC
Nrf2 regulated antioxidants (NQO1, HO-1, GCLM) in BM-MNC, gut and lung (Nrf2 [4]): significantly elevated
total BM-MNC per limb and total HSPC, HSC and MPP (hematopoietic stem cells; analysed 24 h after treatment): significantly higher
viable hematopoietic stem cells (colony forming cells assay) (hematopoietic stem cells): increased number of hematopoietic stem cells
duration of neutropenia [5]: significantly reduced the duration of neutropenia
allergen-induced asthma (airway inflammation and airway hyper-responsiveness) (OVA-induced asthma): protected the mice from allergen-induced asthma
LPS-induced TNF-α secretion by macrophages (ELISA) [6]: significant decrease in LPS-induced TNF-α secretion
